Laboratory results taken from the NIST ThermoML archive (doi:10.1016/j.jct.2018.02.022).
± gives the expanded uncertainty stated by the source.

Test: xn = mol fraction of the nth substance listed
Conditions: 293.15 K, 92.3 kPa, Liquid; for viscosity: Concentric cylinders viscometry; for speed of sound: Frequency=3 MHz, Single path-length method

CCO [ethanol] + O
Conditions | speed of sound [m/s] | viscosity [mPa·s]
x1 = 0.0024 | 1487.7 ± 1.8 | –
x1 = 0.0201 | – | 1.247 ± 0.17
x1 = 0.0202 | 1522.5 ± 1.8 | –
x1 = 0.0295 | 1540 ± 1.8 | –
x1 = 0.0366 | 1553 ± 1.8 | –
x1 = 0.0408 | – | 1.529 ± 0.21
x1 = 0.0497 | – | 1.648 ± 0.23
x1 = 0.0513 | 1578 ± 1.8 | –
x1 = 0.06 | 1590.8 ± 1.8 | 1.821 ± 0.26
x1 = 0.0707 | 1604.2 ± 1.8 | –
x1 = 0.0796 | – | 2.045 ± 0.29
x1 = 0.0801 | 1613.8 ± 1.8 | –
x1 = 0.0904 | 1621.5 ± 1.8 | –
x1 = 0.0997 | 1625.7 ± 1.8 | –
x1 = 0.1004 | – | 2.311 ± 0.32
x1 = 0.1294 | 1623.8 ± 1.8 | –
x1 = 0.1497 | 1611.9 ± 1.8 | –
x1 = 0.1499 | – | 2.72 ± 0.38
x1 = 0.1984 | – | 2.857 ± 0.4
x1 = 0.2008 | 1566.6 ± 1.8 | –
x1 = 0.2499 | – | 2.864 ± 0.4
x1 = 0.2503 | 1520.2 ± 1.8 | –
x1 = 0.2998 | 1478.2 ± 1.8 | –
x1 = 0.3016 | – | 2.793 ± 0.39
x1 = 0.3499 | – | 2.681 ± 0.38
x1 = 0.3507 | 1440.4 ± 1.8 | –
x1 = 0.399 | – | 2.55 ± 0.36
x1 = 0.3992 | 1408.9 ± 1.8 | –
x1 = 0.4495 | – | 2.405 ± 0.34
x1 = 0.4514 | 1379 ± 1.8 | –
x1 = 0.4989 | – | 2.291 ± 0.32
x1 = 0.5002 | 1353.5 ± 1.8 | –
x1 = 0.5494 | 1330.4 ± 1.8 | –
x1 = 0.5495 | – | 2.177 ± 0.3
x1 = 0.6018 | 1307.8 ± 1.8 | –
x1 = 0.6067 | – | 1.997 ± 0.28
x1 = 0.6503 | 1288.5 ± 1.8 | 1.895 ± 0.27
x1 = 0.6956 | – | 1.788 ± 0.25
x1 = 0.7006 | 1269.1 ± 1.8 | –
x1 = 0.7355 | 1256 ± 1.8 | –
x1 = 0.75 | – | 1.68 ± 0.24
x1 = 0.7843 | – | 1.612 ± 0.23
x1 = 0.7965 | 1234.1 ± 1.8 | –
x1 = 0.8433 | 1217.4 ± 1.8 | –
x1 = 0.8475 | – | 1.518 ± 0.21
x1 = 0.8864 | – | 1.42 ± 0.2
x1 = 0.892 | 1199.7 ± 1.8 | –
x1 = 0.9093 | 1193.5 ± 1.8 | –
x1 = 0.9207 | 1189.5 ± 1.8 | –
x1 = 0.929 | – | 1.341 ± 0.19
x1 = 0.9307 | 1185.8 ± 1.8 | –
x1 = 0.9398 | 1182.6 ± 1.8 | –
x1 = 0.9483 | 1179.4 ± 1.8 | –
x1 = 0.9603 | 1175.3 ± 1.8 | –
x1 = 0.9702 | 1171.7 ± 1.8 | –
x1 = 0.9801 | 1168.5 ± 1.8 | –
x1 = 1 | – | 1.202 ± 0.17
